{"source": "patent US11793845B2", "about": "“Composition for ameliorating peripheral sensory neuropathy” (KINKI UNIVERSITY, priority 2016, dated 2023)", "key": {"[1]": {"tested_on": "Peripheral Sensory Neuropathy Induced by Paclitaxel in Mice", "test": "von Frey test, paclitaxel-induced peripheral sensory neuropathy", "assay_type": "in vivo", "conditions": "duloxetine 30 mg/kg daily", "from_the_text": "(§1) The mice in the three groups in the above (1) were put in a cage and a filament having a strength of 0.16 g was pressed on the plantar surface of the leg to measure the number of times (a score) of avoidance response.\nMale Balb/c mice of 6 to 7 weeks old were used as in Example 1. The mice were divided into three groups: a control group, a paclitaxel administration group, and a paclitaxel and Lentinus edodes mycelium extract administration group (paclitaxel+Lentinus edodes mycelium extract administration group). Paclitaxel was administered to each mouse once a day at a dose of 6 mg/kg. Further, the Lentinus edodes mycelium extract was administered to each mouse once a day at a dose of 2 g/kg.\nFurther, the number of times of administration was set to once a week (on Day 0, Day 7, and Day 14) for paclitaxel and daily (from Day 0 to Day 15) for the Lentinus edodes mycelium extract in both the von Frey test and the cold plate test below.\nEvaluation was performed in the same manner as in the test with oxaliplatin. Referring to FIG. 3, the horizontal axis indicates an elapsed time after administration (days) and the vertical axis indicates the avoidance response (scores). Open circles with a solid line represent the control group. Filled circles with a solid line represent the group in which only paclitaxel was administered. Open squares with a dash line represent the group in which paclitaxel and the Lentinus edodes mycelium extract were administered (paclitaxel+Lentinus edodes mycelium extract administration group). When the difference with the control group was determined to be significant using a significance level of 5%, the data were marked by “*”.\n(§2) In the present test, the mice were divided into six groups by a difference in test objects. As in Example 1, male Balb/c mice of 6 to 7 weeks old were used. […]"}, "[2]": {"tested_on": "Peripheral Sensory Neuropathy Induced by Bortezomib in Mice", "test": "von Frey test, bortezomib-induced peripheral sensory neuropathy", "assay_type": "in vivo", "conditions": "duloxetine 30 mg/kg daily", "from_the_text": "as §1\nIn the present test, the mice were divided into three groups by a difference in test objects. As in Example 1, male Balb/c mice of 6 to 7 weeks old were used. The mice were divided into a total of three groups, a control group, a bortezomib administration group, and a bortezomib and Lentinus edodes mycelium extract administration group (bortezomib+Lentinus edodes mycelium extract administration group).\nBortezomib was administered to each mouse once a day at a dose of 1 mg/kg. Further, the Lentinus edodes mycelium extract was administered to each mouse once a day at a dose of 2 g/kg.\nFurther, the number of times of administration was set to once a week (on Day 0, Day 7, and Day 14) for bortezomib and daily (from Day 0 to Day 15) for the Lentinus edodes mycelium extract in both the von Frey test and the cold plate test below.\nEvaluation was performed in the same manner as in the test with oxaliplatin in Example 1. Referring to FIG. 7, the horizontal axis indicates an elapsed time after administration (days) and the vertical axis indicates the avoidance response (scores). Open circles with a solid line represent the control group. Filled circles with a solid line represent the group in which only bortezomib was administered. Open squares with a dash line represent the group in which bortezomib and the Lentinus edodes mycelium extract were administered at the same time (bortezomib+Lentinus edodes mycelium extract administration group). When the difference with the control group was determined to be significant using a significance level of 5%, the data were marked by “*”.\nas §2"}}}
{"smiles": "CNCC[C@H](Oc1cccc2ccccc12)c1cccs1", "note": "[duloxetine]", "values": [{"measurement": "avoidance score compared with paclitaxel administration group, von Frey test", "setting": "[1]; 3-day delayed after paclitaxel", "result": "almost the same avoidance score as that in the paclitaxel administration group"}, {"measurement": "avoidance score, von Frey test", "setting": "[1]; 6-day delayed after paclitaxel", "result": "same tendency as that in the duloxetine 3-day delayed administration group"}, {"measurement": "avoidance score compared with bortezomib administration group, von Frey test", "setting": "[2]; 3-day delayed after bortezomib", "result": "almost the same score as that in the bortezomib administration group"}, {"measurement": "avoidance score, von Frey test", "setting": "[2]; 6-day delayed after bortezomib", "result": "same tendency as that in the duloxetine 3-day delayed administration group"}]}
